Source: the NIST ThermoML archive (doi:10.1021/acs.jced.6b00655)

Assay: xn = mol fraction of the nth substance listed
Conditions: 100 kPa, Liquid, Vibrating tube method

CCCC[N+]1(C)CCCC1.O=S(=O)([N-]S(=O)(=O)C(F)(F)F)C(F)(F)F + CCc1ccccc1
283.15 K
Conditions | mass density [kg/m3]
x2 = 0 | 1410.45
x2 = 0.312 | 1332.47
x2 = 0.417 | 1296.15
x2 = 0.489 | 1268.45
x2 = 0.636 | 1201.58

CCCC[N+]1(C)CCCC1.O=S(=O)([N-]S(=O)(=O)C(F)(F)F)C(F)(F)F + Cc1ccc(C)cc1
283.15 K
Conditions | mass density [kg/m3]
x2 = 0 | 1407.6
x2 = 0.207 | 1361.17
x2 = 0.357 | 1315.5
x2 = 0.507 | 1254.4
x2 = 0.617 | 1193.73

CCCC[N+]1(C)CCCC1.O=S(=O)([N-]S(=O)(=O)C(F)(F)F)C(F)(F)F + Cc1cccc(C)c1
283.15 K
Conditions | mass density [kg/m3]
x2 = 0 | 1410.45
x2 = 0.206 | 1361.63
x2 = 0.372 | 1318.08
x2 = 0.491 | 1259.92
x2 = 0.616 | 1191.7

CCCC[N+]1(C)CCCC1.O=S(=O)([N-]S(=O)(=O)C(F)(F)F)C(F)(F)F + Cc1ccccc1
283.15 K
Conditions | mass density [kg/m3]
x2 = 0 | 1407.6
x2 = 0.509 | 1276.06
x2 = 0.574 | 1250.95
x2 = 0.611 | 1228.59
x2 = 0.73 | 1160.93

CCCC[N+]1(C)CCCC1.O=S(=O)([N-]S(=O)(=O)C(F)(F)F)C(F)(F)F + Cc1ccccc1C
283.15 K
Conditions | mass density [kg/m3]
x2 = 0 | 1407.6
x2 = 0.21 | 1360.77
x2 = 0.409 | 1303.44
x2 = 0.622 | 1224.4
x2 = 0.673 | 1207.6

CCCC[N+]1(C)CCCC1.O=S(=O)([N-]S(=O)(=O)C(F)(F)F)C(F)(F)F + c1ccccc1
283.15 K
Conditions | mass density [kg/m3]
x2 = 0 | 1410.45
x2 = 0.106 | 1394.11
x2 = 0.309 | 1355.03
x2 = 0.505 | 1296.91
x2 = 0.714 | 1203.57
x2 = 0.813 | 1133.23

CCCC[N+]1(C)CCCC1.N#CN=C=[N-] [1-butyl-1-methylpyrrolidinium dicyanamide] + CCc1ccccc1
283.15 K
Conditions | mass density [kg/m3]
x2 = 0 | 1022.97
x2 = 0.044 | 1020.28
x2 = 0.11 | 1016.49
x2 = 0.2 | 1010.5
x2 = 0.307 | 1002.43
x2 = 0.359 | 997.98
x2 = 0.397 | 994.71

CCCC[N+]1(C)CCCC1.N#CN=C=[N-] [1-butyl-1-methylpyrrolidinium dicyanamide] + Cc1ccc(C)cc1
283.15 K
Conditions | mass density [kg/m3]
x2 = 0 | 1022.94
x2 = 0.055 | 1019.77
x2 = 0.109 | 1015.55
x2 = 0.21 | 1009.54
x2 = 0.27 | 1005.7
x2 = 0.335 | 1000.17
x2 = 0.389 | 993.97

CCCC[N+]1(C)CCCC1.N#CN=C=[N-] [1-butyl-1-methylpyrrolidinium dicyanamide] + Cc1cccc(C)c1
283.15 K
Conditions | mass density [kg/m3]
x2 = 0 | 1022.94
x2 = 0.057 | 1019.68
x2 = 0.112 | 1016.11
x2 = 0.202 | 1009.68
x2 = 0.26 | 1006.3
x2 = 0.318 | 1000.45
x2 = 0.388 | 995.25

CCCC[N+]1(C)CCCC1.N#CN=C=[N-] [1-butyl-1-methylpyrrolidinium dicyanamide] + Cc1ccccc1
283.15 K
Conditions | mass density [kg/m3]
x2 = 0 | 1022.97
x2 = 0.054 | 1020.33
x2 = 0.103 | 1018.02
x2 = 0.205 | 1012.43
x2 = 0.304 | 1006.23
x2 = 0.387 | 1000.63
x2 = 0.454 | 993.84
x2 = 0.528 | 986.94

CCCC[N+]1(C)CCCC1.N#CN=C=[N-] [1-butyl-1-methylpyrrolidinium dicyanamide] + Cc1ccccc1C
283.15 K
Conditions | mass density [kg/m3]
x2 = 0 | 1022.97
x2 = 0.001 | 1022.98
x2 = 0.102 | 1018.02
x2 = 0.202 | 1011.22
x2 = 0.305 | 1005.51
x2 = 0.385 | 999.83
x2 = 0.433 | 997.35

CCCC[N+]1(C)CCCC1.N#CN=C=[N-] [1-butyl-1-methylpyrrolidinium dicyanamide] + c1ccccc1
283.15 K
Conditions | mass density [kg/m3]
x2 = 0 | 1021.84
x2 = 0.051 | 1020.09
x2 = 0.099 | 1018.22
x2 = 0.199 | 1014.33
x2 = 0.293 | 1009.95
x2 = 0.401 | 1004.03
x2 = 0.505 | 996.7
x2 = 0.61 | 987.41
x2 = 0.637 | 984.55
x2 = 0.665 | 981.11
x2 = 0.69 | 978.4
x2 = 0.718 | 973.87

CCCC[N+]1(C)CCCC1.O=S(=O)([O-])C(F)(F)F [1-butyl-1-methylpyrrolidinium trifluoromethanesulfonate] + CCc1ccccc1
283.15 K
Conditions | mass density [kg/m3]
x2 = 0 | 1263.17
x2 = 0.044 | 1254.99
x2 = 0.107 | 1240.68
x2 = 0.209 | 1220.18
x2 = 0.309 | 1193.98
x2 = 0.391 | 1174.45
x2 = 0.42 | 1164.28

CCCC[N+]1(C)CCCC1.O=S(=O)([O-])C(F)(F)F [1-butyl-1-methylpyrrolidinium trifluoromethanesulfonate] + Cc1ccc(C)cc1
283.15 K
Conditions | mass density [kg/m3]
x2 = 0 | 1263.17
x2 = 0.053 | 1249.16
x2 = 0.102 | 1242.37
x2 = 0.203 | 1216.86
x2 = 0.306 | 1195.95
x2 = 0.361 | 1180.48
x2 = 0.415 | 1164.5

CCCC[N+]1(C)CCCC1.O=S(=O)([O-])C(F)(F)F [1-butyl-1-methylpyrrolidinium trifluoromethanesulfonate] + Cc1cccc(C)c1
283.15 K
Conditions | mass density [kg/m3]
x2 = 0 | 1263.17
x2 = 0.054 | 1253.29
x2 = 0.11 | 1241.72
x2 = 0.202 | 1221.84
x2 = 0.308 | 1195.52
x2 = 0.352 | 1184.04
x2 = 0.402 | 1170.32
x2 = 0.418 | 1165.83

CCCC[N+]1(C)CCCC1.O=S(=O)([O-])C(F)(F)F [1-butyl-1-methylpyrrolidinium trifluoromethanesulfonate] + Cc1ccccc1
283.15 K
Conditions | mass density [kg/m3]
x2 = 0 | 1263.17
x2 = 0.052 | 1255.13
x2 = 0.102 | 1246.47
x2 = 0.221 | 1223.94
x2 = 0.313 | 1203.6
x2 = 0.4 | 1181.98
x2 = 0.516 | 1147.19
x2 = 0.579 | 1124.97

CCCC[N+]1(C)CCCC1.O=S(=O)([O-])C(F)(F)F [1-butyl-1-methylpyrrolidinium trifluoromethanesulfonate] + Cc1ccccc1C
283.15 K
Conditions | mass density [kg/m3]
x2 = 0 | 1263.17
x2 = 0.054 | 1252.3
x2 = 0.107 | 1243.62
x2 = 0.19 | 1225.81
x2 = 0.308 | 1197.9
x2 = 0.399 | 1174.56
x2 = 0.451 | 1160.97

CCCC[N+]1(C)CCCC1.O=S(=O)([O-])C(F)(F)F [1-butyl-1-methylpyrrolidinium trifluoromethanesulfonate] + c1ccccc1
283.15 K
Conditions | mass density [kg/m3]
x2 = 0 | 1263.28
x2 = 0.047 | 1257.62
x2 = 0.095 | 1251.22
x2 = 0.199 | 1235.63
x2 = 0.293 | 1218.76
x2 = 0.405 | 1195.65
x2 = 0.503 | 1170.77
x2 = 0.601 | 1140.47
x2 = 0.644 | 1125.22
x2 = 0.675 | 1112.49
x2 = 0.701 | 1101.39
x2 = 0.718 | 1093.71
x2 = 0.738 | 1084.59

CCCC[N+](C)(C)C.O=S(=O)([N-]S(=O)(=O)C(F)(F)F)C(F)(F)F [butyltrimethylammonium bis(trifluoromethylsulfonyl)imide] + CCc1ccccc1
343.15 K
Conditions | mass density [kg/m3]
x2 = 0 | 1348.32
x2 = 0.037 | 1345.32
x2 = 0.099 | 1330.93
x2 = 0.245 | 1295.53
x2 = 0.309 | 1271.7
x2 = 0.397 | 1243.17
x2 = 0.448 | 1221.88
x2 = 0.498 | 1201.31

CCCC[N+](C)(C)C.O=S(=O)([N-]S(=O)(=O)C(F)(F)F)C(F)(F)F [butyltrimethylammonium bis(trifluoromethylsulfonyl)imide] + Cc1ccc(C)cc1
343.15 K
Conditions | mass density [kg/m3]
x2 = 0 | 1348.32
x2 = 0.056 | 1341.21
x2 = 0.096 | 1332.06
x2 = 0.196 | 1307.74
x2 = 0.307 | 1273.97
x2 = 0.414 | 1235.93
x2 = 0.486 | 1205.85

CCCC[N+](C)(C)C.O=S(=O)([N-]S(=O)(=O)C(F)(F)F)C(F)(F)F [butyltrimethylammonium bis(trifluoromethylsulfonyl)imide] + Cc1cccc(C)c1
343.15 K
Conditions | mass density [kg/m3]
x2 = 0 | 1348.32
x2 = 0.057 | 1340.71
x2 = 0.099 | 1330.46
x2 = 0.2 | 1304.78
x2 = 0.305 | 1274.33
x2 = 0.411 | 1235.86
x2 = 0.45 | 1222.37
x2 = 0.502 | 1201.38

CCCC[N+](C)(C)C.O=S(=O)([N-]S(=O)(=O)C(F)(F)F)C(F)(F)F [butyltrimethylammonium bis(trifluoromethylsulfonyl)imide] + Cc1ccccc1
343.15 K
Conditions | mass density [kg/m3]
x2 = 0 | 1346.21
x2 = 0.1 | 1333.19
x2 = 0.202 | 1310.32
x2 = 0.316 | 1279.85
x2 = 0.404 | 1252.66
x2 = 0.502 | 1211.78
x2 = 0.61 | 1167.51
x2 = 0.643 | 1150.47

CCCC[N+](C)(C)C.O=S(=O)([N-]S(=O)(=O)C(F)(F)F)C(F)(F)F [butyltrimethylammonium bis(trifluoromethylsulfonyl)imide] + Cc1ccccc1C
343.15 K
Conditions | mass density [kg/m3]
x2 = 0 | 1348.32
x2 = 0.046 | 1343.67
x2 = 0.099 | 1331.9
x2 = 0.207 | 1306.39
x2 = 0.309 | 1276.95
x2 = 0.398 | 1246.25
x2 = 0.481 | 1213.91
x2 = 0.542 | 1191.25

CCCC[N+](C)(C)C.O=S(=O)([N-]S(=O)(=O)C(F)(F)F)C(F)(F)F [butyltrimethylammonium bis(trifluoromethylsulfonyl)imide] + c1ccccc1
343.15 K
Conditions | mass density [kg/m3]
x2 = 0 | 1348.32
x2 = 0.096 | 1335.57
x2 = 0.2 | 1316.52
x2 = 0.308 | 1288.49
x2 = 0.414 | 1262.43
x2 = 0.512 | 1229.56
x2 = 0.613 | 1185.89
x2 = 0.762 | 1105.62

CCCC[N+](C)(CCCC)CCCC.O=S(=O)([N-]S(=O)(=O)C(F)(F)F)C(F)(F)F [tributylmethylammonium bis((trifluoromethyl)sulfonyl)imide] + CCc1ccccc1
343.15 K
Conditions | mass density [kg/m3]
x2 = 0 | 1224.15
x2 = 0.105 | 1210.81
x2 = 0.203 | 1197.48
x2 = 0.295 | 1179.85
x2 = 0.389 | 1160.38
x2 = 0.461 | 1142.53
x2 = 0.584 | 1105.8
x2 = 0.701 | 1065.88
x2 = 0.732 | 1053.69

CCCC[N+](C)(CCCC)CCCC.O=S(=O)([N-]S(=O)(=O)C(F)(F)F)C(F)(F)F [tributylmethylammonium bis((trifluoromethyl)sulfonyl)imide] + Cc1ccc(C)cc1
343.15 K
Conditions | mass density [kg/m3]
x2 = 0 | 1224.15
x2 = 0.106 | 1209.82
x2 = 0.257 | 1187.07
x2 = 0.37 | 1163.42
x2 = 0.459 | 1143.06
x2 = 0.552 | 1114.23
x2 = 0.7 | 1057.46

CCCC[N+](C)(CCCC)CCCC.O=S(=O)([N-]S(=O)(=O)C(F)(F)F)C(F)(F)F [tributylmethylammonium bis((trifluoromethyl)sulfonyl)imide] + Cc1cccc(C)c1
343.15 K
Conditions | mass density [kg/m3]
x2 = 0 | 1224.18
x2 = 0.148 | 1203.79
x2 = 0.262 | 1185.69
x2 = 0.363 | 1165.61
x2 = 0.498 | 1130.77
x2 = 0.605 | 1095.81
x2 = 0.708 | 1059.94

CCCC[N+](C)(CCCC)CCCC.O=S(=O)([N-]S(=O)(=O)C(F)(F)F)C(F)(F)F [tributylmethylammonium bis((trifluoromethyl)sulfonyl)imide] + Cc1ccccc1
343.15 K
Conditions | mass density [kg/m3]
x2 = 0 | 1224.15
x2 = 0.055 | 1218.2
x2 = 0.104 | 1212.25
x2 = 0.199 | 1200.37
x2 = 0.303 | 1184.47
x2 = 0.411 | 1163.41
x2 = 0.586 | 1117.48
x2 = 0.799 | 1036.86
x2 = 0.84 | 1016.08
